Measurements: ChEMBL document CHEMBL1201862, “PubChem BioAssay data set” (2004)
Activity calls are given as the source filed them.

Legend:
[1] = target: Luciferin 4-monooxygenase (Photinus pyralis, UniProt P08659); experiment: Counter Screen for Luciferase-based Assay Positives. [Related pubchem assays: 620, 618, 411 ]
HT-1080 = experiment: cytotoxicity in HT1080 fibrosarcoma cells, cell-based, fluorescence readout (AID 620); type: functional; details: Homo sapiens
[2] = target: T1, Neuropeptide Y receptor type 1 (Homo sapiens, UniProt P25929); experiment: NPY-Y1 receptor antagonist potency, dose response, cell-based (AID 1277); type: functional
T1 sequence (P25929 whole entry): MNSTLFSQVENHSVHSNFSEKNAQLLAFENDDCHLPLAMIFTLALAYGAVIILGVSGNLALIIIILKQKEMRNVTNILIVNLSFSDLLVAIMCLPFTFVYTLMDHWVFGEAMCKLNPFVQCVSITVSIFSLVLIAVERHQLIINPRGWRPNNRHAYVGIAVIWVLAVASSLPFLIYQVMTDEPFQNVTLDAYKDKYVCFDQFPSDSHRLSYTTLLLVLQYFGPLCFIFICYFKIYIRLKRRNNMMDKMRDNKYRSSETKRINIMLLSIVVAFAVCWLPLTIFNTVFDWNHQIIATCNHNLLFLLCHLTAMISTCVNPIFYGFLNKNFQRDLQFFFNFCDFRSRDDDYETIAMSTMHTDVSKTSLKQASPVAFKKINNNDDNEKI

[3] = target: T2, Neuropeptide Y receptor type 2 (Homo sapiens, UniProt P49146); experiment: NPY-Y2 antagonist potency, selectivity check, dose response, counter-screen for NPY-Y1 antagonist project, cell-based (AID 1278); type: functional
T2 sequence (P49146 whole entry): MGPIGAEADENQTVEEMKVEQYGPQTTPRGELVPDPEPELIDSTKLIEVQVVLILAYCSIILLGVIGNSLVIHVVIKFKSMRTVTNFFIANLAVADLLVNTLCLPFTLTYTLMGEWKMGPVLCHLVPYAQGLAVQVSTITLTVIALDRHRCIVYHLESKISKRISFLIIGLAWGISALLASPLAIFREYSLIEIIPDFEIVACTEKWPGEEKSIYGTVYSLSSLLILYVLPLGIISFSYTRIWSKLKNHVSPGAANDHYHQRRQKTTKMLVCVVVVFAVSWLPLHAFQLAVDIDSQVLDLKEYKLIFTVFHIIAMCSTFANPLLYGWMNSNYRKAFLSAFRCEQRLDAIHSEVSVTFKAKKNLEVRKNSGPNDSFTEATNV

[4] = target: T3, Mannose-6-phosphate isomerase (Homo sapiens, UniProt P34949); experiment: inhibitors of human PMI, primary screen, biochemical, fluorescence intensity, coupled assay (AID 1209)
T3 sequence (P34949 whole entry): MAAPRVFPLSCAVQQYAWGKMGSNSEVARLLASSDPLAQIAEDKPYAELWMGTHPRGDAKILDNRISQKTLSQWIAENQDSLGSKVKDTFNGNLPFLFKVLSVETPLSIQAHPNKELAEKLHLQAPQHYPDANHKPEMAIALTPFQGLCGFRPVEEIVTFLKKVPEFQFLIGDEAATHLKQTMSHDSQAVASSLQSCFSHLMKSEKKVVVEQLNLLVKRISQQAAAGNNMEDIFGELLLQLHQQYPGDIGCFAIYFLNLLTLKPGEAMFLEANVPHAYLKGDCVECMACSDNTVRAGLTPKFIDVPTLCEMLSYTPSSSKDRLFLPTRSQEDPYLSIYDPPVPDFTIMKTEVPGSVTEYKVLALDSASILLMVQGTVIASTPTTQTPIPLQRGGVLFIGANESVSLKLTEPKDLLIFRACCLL

[5] = target: T3, Mannose-6-phosphate isomerase; experiment: human PMI inhibitors, high substrate, primary screen, biochemical, fluorescence intensity, high mannose 6-phosphate (AID 1220)
[6] = NIH-3T3 fibroblast cytotoxicity, dose response, cytotoxicity control, cell-based, fluorescence, Alamar Blue, secondary assay (AID 2327); type: functional;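 further: NIH-3T3 mouse fibroblasts cultured with fluconazole at 8 µg/mL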
[7] = C. albicans growth with fluconazole, confirmation, fluorescence, retest (AID 2467); type: functional, cell-based
Streptokinase A = target: T4, Streptokinase A (Streptococcus pyogenes serotype M1, UniProt P10520); experiment: S. pyogenes streptokinase expression inhibitors, potency, dose response, plasminogen activation absorbance, OD405 (AID 1914); type: functional, Streptococcus pyogenes M1 GAS;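 further: secreted streptokinase activity via plasminogen activation per viability signal from cell pellet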
T4 sequence (P10520 whole entry): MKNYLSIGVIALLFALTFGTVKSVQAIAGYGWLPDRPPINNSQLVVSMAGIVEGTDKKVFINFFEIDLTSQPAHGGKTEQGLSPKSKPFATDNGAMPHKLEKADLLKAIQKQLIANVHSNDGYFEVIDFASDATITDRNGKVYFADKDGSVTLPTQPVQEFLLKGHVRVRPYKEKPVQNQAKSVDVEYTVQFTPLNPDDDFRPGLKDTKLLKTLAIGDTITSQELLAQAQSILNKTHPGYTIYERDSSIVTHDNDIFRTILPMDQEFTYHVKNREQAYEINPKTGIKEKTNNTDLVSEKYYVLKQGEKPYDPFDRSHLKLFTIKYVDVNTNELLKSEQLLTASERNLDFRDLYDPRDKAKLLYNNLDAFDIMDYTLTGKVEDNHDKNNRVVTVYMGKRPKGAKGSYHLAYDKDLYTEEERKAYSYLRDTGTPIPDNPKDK

Streptococcus = experiment: Group A Streptococcus viability loss, dose response, counter-screen for streptokinase expression inhibitor project, luminescence, BacTiterGlo (AID 1915); type: functional, organism-based;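 further: potency for reduction of bacterial viability or growth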
Leucine aminopeptidase = target: T5, Leucine aminopeptidase (Plasmodium falciparum 3D7, UniProt Q8IL11); experiment: P. falciparum M17LAP inhibitors, primary screen, biochemical, fluorogenic H-Leu-NHMec substrate, 1536-well (AID 1619); type: functional
T5 sequence (Q8IL11 whole entry): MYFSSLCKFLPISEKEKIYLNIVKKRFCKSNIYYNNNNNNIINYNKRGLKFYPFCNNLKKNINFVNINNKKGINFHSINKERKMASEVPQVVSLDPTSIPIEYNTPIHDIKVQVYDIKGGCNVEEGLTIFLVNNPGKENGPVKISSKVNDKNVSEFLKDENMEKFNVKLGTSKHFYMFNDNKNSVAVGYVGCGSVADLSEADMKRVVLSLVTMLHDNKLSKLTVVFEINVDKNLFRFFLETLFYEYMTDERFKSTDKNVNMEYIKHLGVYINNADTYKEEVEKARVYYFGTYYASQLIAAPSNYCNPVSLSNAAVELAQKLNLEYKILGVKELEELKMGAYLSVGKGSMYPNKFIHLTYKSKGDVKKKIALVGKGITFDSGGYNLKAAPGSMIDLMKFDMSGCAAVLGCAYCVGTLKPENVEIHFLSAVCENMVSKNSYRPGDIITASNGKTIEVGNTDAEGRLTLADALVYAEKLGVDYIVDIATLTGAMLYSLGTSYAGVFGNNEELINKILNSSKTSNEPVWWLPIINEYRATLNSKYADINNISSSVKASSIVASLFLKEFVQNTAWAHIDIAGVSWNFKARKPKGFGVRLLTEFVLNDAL

[8] = test system: Streptococcus sp. 'group A'; experiment: growth inhibition of control SK(-) GAS strain, dose response, counter-screen for streptokinase expression inhibitor project, luminescence, kanamycin, BacTiterGlo, confirmation (AID 1900); type: functional, organism-based
Cytochrome P450 1A2 = target: T6, Cytochrome P450 1A2 (Homo sapiens, UniProt P05177);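 further: PubChem cytochrome P450 panel assay, CYP1A2 panel member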
T6 sequence (P05177 whole entry): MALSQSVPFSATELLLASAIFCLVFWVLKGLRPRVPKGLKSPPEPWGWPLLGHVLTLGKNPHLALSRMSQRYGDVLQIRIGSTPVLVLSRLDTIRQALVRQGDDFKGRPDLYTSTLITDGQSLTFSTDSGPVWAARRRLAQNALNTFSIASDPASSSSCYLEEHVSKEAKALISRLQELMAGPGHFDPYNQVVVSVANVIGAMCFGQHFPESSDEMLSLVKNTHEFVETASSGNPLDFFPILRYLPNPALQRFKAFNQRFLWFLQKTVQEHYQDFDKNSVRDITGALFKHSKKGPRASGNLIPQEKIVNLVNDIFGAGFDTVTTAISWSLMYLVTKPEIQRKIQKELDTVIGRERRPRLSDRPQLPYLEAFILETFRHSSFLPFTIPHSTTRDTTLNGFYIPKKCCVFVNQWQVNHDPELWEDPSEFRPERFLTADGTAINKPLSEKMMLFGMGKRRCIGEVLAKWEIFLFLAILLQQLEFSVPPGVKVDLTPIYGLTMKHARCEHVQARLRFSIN

[9] = M. tuberculosis H37Rv growth inhibitors, H37Rv strain (AID 1626); type: functional
Troponin, cardiac muscle = Troponin, cardiac muscle (Homo sapiens, UniProt P19429+P45379+P63316); experiment: Fluorescence-based biochemical high throughput dose response assay for activators of the calcium sensitivity of cardiac Regulated Thin Filaments (RTF). [Related pubchem assays (depositor defined):AID493008, AID493018, AID504382, AID504383]; type: protein-complex assay
[10] = HEp-2 cell cytotoxicity, dose response, cytotoxicity control for RSV inhibitor project, HTS (AID 2410); type: functional; details: human respiratory syncytial virus
Protein skinhead-1 = target: T7, Protein skinhead-1 (Caenorhabditis elegans, UniProt P34707); type: functional
T7 sequence (P34707 whole entry): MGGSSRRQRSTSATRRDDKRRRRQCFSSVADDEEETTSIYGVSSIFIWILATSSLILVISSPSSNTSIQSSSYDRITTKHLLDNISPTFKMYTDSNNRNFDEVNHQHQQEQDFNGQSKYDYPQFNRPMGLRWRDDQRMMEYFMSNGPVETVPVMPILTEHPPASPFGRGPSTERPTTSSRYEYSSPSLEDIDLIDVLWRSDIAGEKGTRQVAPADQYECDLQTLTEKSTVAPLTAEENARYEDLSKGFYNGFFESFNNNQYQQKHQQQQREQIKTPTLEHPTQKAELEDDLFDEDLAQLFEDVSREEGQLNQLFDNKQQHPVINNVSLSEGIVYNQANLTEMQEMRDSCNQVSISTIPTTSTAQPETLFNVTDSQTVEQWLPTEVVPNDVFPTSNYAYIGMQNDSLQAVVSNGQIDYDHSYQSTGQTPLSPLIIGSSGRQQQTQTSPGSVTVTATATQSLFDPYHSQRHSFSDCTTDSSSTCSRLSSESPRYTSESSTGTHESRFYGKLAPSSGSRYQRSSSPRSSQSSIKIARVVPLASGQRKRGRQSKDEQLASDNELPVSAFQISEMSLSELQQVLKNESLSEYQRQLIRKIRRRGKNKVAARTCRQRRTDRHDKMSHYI

[11] = cytotoxicity in KRAS-transformed pancreatic duct cells, primary screen, cell-based, fluorescence, HTS (AID 431); type: functional; details: Homo sapiens;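 further: cell line used: HPDE-C7K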
[12] = A549 cell cytotoxicity, dose response, cytotoxicity control, plate reader, cherry-pick, antagonist series (AID 743412); type: functional, cell-based
[13] = LGR2 antagonists, dose response, cell-based, HEK293, CRE-luciferase reporter, cherry pick, set 2 (AID 743343); type: functional;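 further: transfected cells were stimulated with diluted bursicon conditioned medium after compound addition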
[14] = MC4R antagonists, dose response, counter-screen for LGR2 antagonist project, cell-based, plate reader, cherry pick (AID 743444); type: functional;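 further: transfected HEK 293 cells stimulated with alpha-MSH peptide; potency of inhibitors of the alpha-MSH evoked signal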
[15] = HEK293 cell cytotoxicity, dose response, cytotoxicity control, plate reader, cherry-picked samples (AID 743446); type: functional, cell-based
[16] = cytotoxicity in HPDE-C7 cells, cell-based, fluorescence, HTS (AID 430); type: functional; details: Homo sapiens
[17] = HepG2 cell cytotoxicity, dose response, cytotoxicity control, plate reader, cherry-pick, antagonist series (AID 743416); type: functional, cell-based

Chain of Luciferin 4-monooxygenase (P08659 whole entry): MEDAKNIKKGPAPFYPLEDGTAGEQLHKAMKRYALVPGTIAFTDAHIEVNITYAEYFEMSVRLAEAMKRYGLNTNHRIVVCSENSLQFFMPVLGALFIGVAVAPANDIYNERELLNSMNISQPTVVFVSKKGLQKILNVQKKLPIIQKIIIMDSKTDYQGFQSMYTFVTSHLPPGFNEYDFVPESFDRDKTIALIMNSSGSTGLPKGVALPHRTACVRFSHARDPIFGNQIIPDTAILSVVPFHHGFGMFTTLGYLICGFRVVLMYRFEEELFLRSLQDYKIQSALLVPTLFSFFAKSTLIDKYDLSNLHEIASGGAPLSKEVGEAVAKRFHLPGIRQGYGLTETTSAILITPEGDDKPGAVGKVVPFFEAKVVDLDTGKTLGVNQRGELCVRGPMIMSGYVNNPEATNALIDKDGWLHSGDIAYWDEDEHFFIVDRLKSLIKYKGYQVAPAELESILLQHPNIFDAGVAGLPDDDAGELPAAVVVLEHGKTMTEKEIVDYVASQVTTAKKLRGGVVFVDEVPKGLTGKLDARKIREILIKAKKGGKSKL

O=C(c1cc(-c2cccc(O)c2)on1)N1CCCCC1
EC50 [1]: 0.64 µM (active)
EC50 (HT-1080): > 50 µM (not active)

Cc1cc2cc(C)c(NCCNC(=O)c3cccc(F)c3)nc2cc1C
IC50 [2]: 3.39 µM (active)
IC50 [3]: 4.44 µM (active)

COc1ccc2c(c1)C(C)=CC(C)(C)N2C(=O)Nc1ccccc1
IC50 [4]: > 50 µM (not active)
IC50 [5]: > 50 µM (not active)

N=C1/C(=C\c2ccc(SCc3ccccc3)o2)C(=O)N=C2SC=NN12
IC50 [4]: > 50 µM (not active)
EC50 [6]: > 150 µM (inactive)
EC50 [7]: 5.72 µM (active)

Cc1sc(NC(=O)C2C3C=CC(C3)C2C(=O)O)c(C(N)=O)c1-c1ccc(C(C)C)cc1 (centres undefined)
EC50 (Streptokinase A): 32.2 µM (active)
EC50 (Streptococcus): > 150 µM (not active)
IC50 (Leucine aminopeptidase): 4.99 µM (active)
EC50 [8]: 32.1 µM (active)

COc1ccc([N+](=O)[O-])cc1N(CC(O)CN(CC(C)C)CC(C)C)S(=O)(=O)c1ccccc1 (centres undefined)
IC50 [2]: > 35 µM (not active)
IC50 [3]: > 35 µM (not active)
AC50 (Cytochrome P450 1A2): 11.2 µM (inconclusive)

Cc1cc(=O)oc2ccc(OC(=O)CC(C)C)cc12
IC50 [9]: > 100 µM (active)

Fc1ccc(-c2nnc(-c3ccc(Cl)cc3Cl)o2)cc1
EC50 [1]: 2.56 µM (active)
EC50 (HT-1080): > 50 µM (not active)
EC50 (Troponin, cardiac muscle): > 71.5 µM (inactive)
CC50 [10]: 37 µM (active)
IC50 (Protein skinhead-1): > 100 µM (inactive)

O=S(=O)(CCSc1nc2ccccc2o1)c1nc2ccccc2s1
EC50 [11]: 5.33 µM (active)
AC50 [12]: 44.4 µM (active)
AC50 [13]: 2.43 µM (active)
AC50 [14]: 1.8 µM (active)
AC50 [15]: 6.8 µM (active)
EC50 [16]: 4.88 µM (active)
AC50 [17]: 5.74 µM (active)
